From ChEMBL document CHEMBL4177690, “(E)-3-(3,4,5-Trimethoxyphenyl)-1-(pyridin-4-yl)prop-2-en-1-one, a heterocyclic chalcone is a potent and selective CYP1A1 inhibitor and cancer chemopreventive agent” (Bioorg Med Chem Lett, 2017)

Columns and labels:
[1] = organism: Homo sapiens; experiment: Selectivity ratio of IC50 for recombinant human CYP1B1 expressed in HEK293 cells to IC50 for recombinant human CYP1A1 expressed in HEK293 cells; format: cell-based
[2] = organism: Homo sapiens; experiment: Selectivity ratio of IC50 for recombinant human CYP2D6 to IC50 for recombinant human CYP1A1
[3] = target: T1, Aryl hydrocarbon receptor (Homo sapiens, UniProt P35869); experiment: Antagonist activity at recombinant human eGFP-fused Ahr expressed in yeast cells co-expressing ARNT assessed as inhibition of benzo(a)pyrene-induced Ahr activation at 1 uM measured after 18 hrs by fluorescence assay; format: cell-based
T1 sequence (P35869 whole entry): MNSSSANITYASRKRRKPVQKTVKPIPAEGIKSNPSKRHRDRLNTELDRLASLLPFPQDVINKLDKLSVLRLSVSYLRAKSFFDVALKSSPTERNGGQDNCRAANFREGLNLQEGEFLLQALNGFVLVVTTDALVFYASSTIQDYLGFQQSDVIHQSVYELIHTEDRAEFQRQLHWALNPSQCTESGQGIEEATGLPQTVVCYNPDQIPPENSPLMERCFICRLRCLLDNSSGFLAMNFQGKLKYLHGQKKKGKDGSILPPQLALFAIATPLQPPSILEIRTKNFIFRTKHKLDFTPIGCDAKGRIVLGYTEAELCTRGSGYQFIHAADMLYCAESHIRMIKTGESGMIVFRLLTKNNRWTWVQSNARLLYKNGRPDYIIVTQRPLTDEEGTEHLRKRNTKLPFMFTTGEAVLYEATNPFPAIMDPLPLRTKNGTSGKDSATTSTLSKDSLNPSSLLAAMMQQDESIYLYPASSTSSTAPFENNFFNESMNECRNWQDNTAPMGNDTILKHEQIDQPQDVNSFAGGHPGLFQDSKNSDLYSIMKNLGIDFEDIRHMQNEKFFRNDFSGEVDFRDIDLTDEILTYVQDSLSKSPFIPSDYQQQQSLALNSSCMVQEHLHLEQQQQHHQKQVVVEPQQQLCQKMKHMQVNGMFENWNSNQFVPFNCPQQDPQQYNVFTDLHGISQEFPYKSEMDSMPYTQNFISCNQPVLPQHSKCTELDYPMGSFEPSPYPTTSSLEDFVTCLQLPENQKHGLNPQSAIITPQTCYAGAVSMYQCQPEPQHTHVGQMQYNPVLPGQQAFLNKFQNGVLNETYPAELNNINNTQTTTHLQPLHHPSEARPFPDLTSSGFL

[4] = organism: Homo sapiens; experiment: Selectivity ratio of IC50 for human CYP1B1 expressed in yeast microsomal membranes to IC50 for human CYP1A1 expressed in yeast microsomal membranes; format: cell membranes
[5] = target: T2, Cytochrome P450 1A1 (Homo sapiens, UniProt P04798); experiment: Time-dependent inhibition of human CYP1A1 expressed in yeast microsomal membranes using 7-ethoxyresorufin as substrate; format: cell membranes
T2 sequence (P04798 whole entry): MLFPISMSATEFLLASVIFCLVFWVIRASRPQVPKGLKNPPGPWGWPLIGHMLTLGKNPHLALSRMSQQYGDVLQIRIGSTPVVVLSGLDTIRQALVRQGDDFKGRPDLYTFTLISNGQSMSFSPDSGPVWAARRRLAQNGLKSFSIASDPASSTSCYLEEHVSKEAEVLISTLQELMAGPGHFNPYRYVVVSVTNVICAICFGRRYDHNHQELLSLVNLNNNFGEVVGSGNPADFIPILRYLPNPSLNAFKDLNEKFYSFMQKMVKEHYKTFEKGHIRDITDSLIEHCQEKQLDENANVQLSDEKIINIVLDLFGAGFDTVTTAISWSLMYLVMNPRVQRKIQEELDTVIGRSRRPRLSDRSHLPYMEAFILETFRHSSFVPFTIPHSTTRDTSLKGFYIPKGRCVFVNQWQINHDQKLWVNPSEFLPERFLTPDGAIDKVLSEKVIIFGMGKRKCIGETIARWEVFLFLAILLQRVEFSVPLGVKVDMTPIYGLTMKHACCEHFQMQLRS

[6] = target: T3, Cytochrome P450 1A2 (Homo sapiens, UniProt P05177); experiment: Inhibition of human CYP1A2 expressed in yeast microsomal membranes using 3-cyano-7-ethoxycoumarin as substrate measured after 10 mins by fluorescence assay; format: ADME, cell membranes, Microsomal Membrane
T3 sequence (P05177 whole entry): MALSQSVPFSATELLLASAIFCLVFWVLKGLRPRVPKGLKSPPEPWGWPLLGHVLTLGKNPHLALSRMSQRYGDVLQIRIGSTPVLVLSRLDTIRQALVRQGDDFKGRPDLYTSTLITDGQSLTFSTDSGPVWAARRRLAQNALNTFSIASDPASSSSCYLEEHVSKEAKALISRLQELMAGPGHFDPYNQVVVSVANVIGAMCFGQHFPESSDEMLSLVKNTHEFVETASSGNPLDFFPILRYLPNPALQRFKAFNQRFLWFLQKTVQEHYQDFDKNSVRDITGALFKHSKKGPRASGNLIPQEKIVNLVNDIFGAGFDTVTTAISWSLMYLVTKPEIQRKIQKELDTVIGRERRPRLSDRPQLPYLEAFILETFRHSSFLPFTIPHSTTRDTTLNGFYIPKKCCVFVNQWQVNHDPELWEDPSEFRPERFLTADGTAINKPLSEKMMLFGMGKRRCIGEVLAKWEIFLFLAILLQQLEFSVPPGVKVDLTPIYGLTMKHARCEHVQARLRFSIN

[7] = target: T4, Cytochrome P450 2B6 (Homo sapiens, UniProt P20813); experiment: Inhibition of human CYP2B6 expressed in yeast cells; format: ADME, cell-based
T4 sequence (P20813 whole entry): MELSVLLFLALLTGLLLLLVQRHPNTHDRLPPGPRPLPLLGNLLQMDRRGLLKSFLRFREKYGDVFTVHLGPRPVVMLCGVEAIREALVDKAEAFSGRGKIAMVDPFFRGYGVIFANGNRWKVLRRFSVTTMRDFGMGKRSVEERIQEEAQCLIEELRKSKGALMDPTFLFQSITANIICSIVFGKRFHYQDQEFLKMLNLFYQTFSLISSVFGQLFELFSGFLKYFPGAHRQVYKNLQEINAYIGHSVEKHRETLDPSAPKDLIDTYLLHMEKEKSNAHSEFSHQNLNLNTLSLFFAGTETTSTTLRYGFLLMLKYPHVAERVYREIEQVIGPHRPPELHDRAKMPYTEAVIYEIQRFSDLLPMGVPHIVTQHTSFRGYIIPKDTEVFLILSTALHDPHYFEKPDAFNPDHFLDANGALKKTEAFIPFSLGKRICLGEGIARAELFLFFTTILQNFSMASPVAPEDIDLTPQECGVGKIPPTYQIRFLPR

[8] = organism: Homo sapiens; experiment: Selectivity ratio of IC50 for recombinant human CYP2C9 to IC50 for recombinant human CYP1A1

Ratio IC50 [2]: > 100
inhibition (INH) [3]: Active
Ratio IC50 [4]: > 10
TDI [5]: Not Active
IC50 [6]: 1090 nM
IC50 [7]: > 10000 nM
Ratio IC50 [8]: > 100
Structure (SMILES): COc1cc(/C=C/C(=O)c2ccncc2)cc(OC)c1OC
Ratio IC50 [1]: < 10
